The test system of one data set is Male Sprague-Dawley rats. As to the kind of experiment: Inverted screen test (muscle relaxation). Type of data set: in vivo. The procedure: Results were analyzed using ANOVA (Dunnett's test: *P<0.05).
The inverted screen test is used to measure whether or not a test compound induces muscle relaxation. When a test subject is placed on a wire screen which is then inverted, the reaction is to climb to the opposite side so they are no longer hanging upside down. If a compound promotes muscle relaxation, the test subjects will either fall off, or hang onto the screen without being able to climb to the opposite side.
Rats were placed onto the top of a wire screen, which was then inverted so that the rats were hanging upside down. […] Results were analyzed using ANOVA (Dunnett's test: *P<0.05).

A further data set has as its system Male NIH Swiss mice. The data set is described as follows: Forced swim test. Format: in vivo. The conditions noted are these: 10 and 30 mg/kg i.p. The protocol: FIG. 16 is a graph of immobility illustrating the antidepressant effects of KRM-II-81 assessed in the forced swim test. Male NIH Swiss mice (n=7-8) were dosed i.p. with vehicle (1% HEC, 0.25% Tween 80, 0.05% antifoam), KRM-II-81 (3, 10, or 30 mg/kg), or imipramine (15 mg/kg) and assessed in the forced swim test. Results were analyzed using ANOVA (Dunnett's test *P<0.05).
The forced swim test is used as a primary screen for the antidepressant nature of a test compound. Mice are placed in a cylinder filled with a small amount of water. Mice that are more mobile after a dosing of a compound are determined to be less depressed.
The experiment was carried out as described by Porsolt et al. (Arch. Int. Pharmacodyn. Ther. 1977, 229, 327-366). Male NIH Swiss mice (n=7-8) were dosed i.p. with vehicle (1% HEC, 0.25% Tween 80, 0.05% antifoam), KRM-II-81 (3, 10, or 30 mg/kg), or imipramine (15 mg/kg) and assessed in the forced swim test. Mice were placed individually in clear plastic cylinders (10 cm in diameter×25 cm in height) filled to 6 cm with 22-25° C. water for 6 minutes. The duration of immobility was recorded during the last 4 minutes of a 6-minute trial. A mouse was regarded as immobile when floating motionless or making only those movements necessary to keep its head above the water.

Data on one compound can be found in patent publication US10259815B2, “Gabaergic ligands and their uses” (UWM Research Foundation, Inc., priority 2015, dated 2019).

As for `C#Cc1ccc2c(c1)C(c1ccccn1)=NCc1c(-c3cnco3)ncn1-2` [KRM-II-81, 5-(8-Ethynyl-6-(pyridin-2-yl)-4H-benzo[f]imidazo[1,5-a][1,4]diazepin-3-yl)oxazole], in the data set with Male Sprague-Dawley rats (i.p. 30 minutes prior, diazepam 3, 10, 30 mg/kg, KRM-II-81 10, 30, 60 mg/kg, HZ-166 30 mg/kg), the “muscle relaxation / motor impairment in inverted screen” value was “Neither HZ-166 nor KRM-II-81 induced significant muscle relaxation”. Moreover, the “dose at which signs of muscle relaxation began to appear” value with Male Sprague-Dawley rats (i.p., inverted screen) was 60 mg/kg. The “antidepressant effects (immobility)” value in the data set on Male NIH Swiss mice was “demonstrated antidepressant effects”.
